Measurements from patent US20230065745A1, “PIPERIDINE-2,6-DIONE DERIVATIVES WHICH BIND TO CEREBLON, AND METHODS OF USE THEREOF” (Captor Therapeutics S.A., priority 2019, published 2023).

Experiments:
[1] = target: CRBN-DDB1 protein complex (Homo sapiens, UniProt Q96SW2); experiment: Fluorescence Polarization (FP) assay, displacement of Cy5-labelled thalidomide; details: 25 nM CRBN-DDB1, 5 nM Cy5-labelled thalidomide, read-out: CRBN binding Ki
Protocol: CRBN-DDB1 protein complex was mixed with Cy5-labelled thalidomide and a compound to be tested (the “test compound”). […] The test solution was added to a 384-well assay plate.
The plate was spun-down (1 min, 1000 rpm, 22° C.) and then shaken using a VibroTurbulator for 10 min at room temperature (20-25° C.), with the frequency set to level 3. The assay plate with protein and the tracer was incubated for 60 min at room temperature (20-25° C.) prior to read-out with a plate reader.
The FP experiment was carried out with various concentrations of the test compounds in order to measure Ki values.

IKZF1 = IKZF1 degradation assay, H929 cell line (Western blot densitometry); assay type: cell-based; details: 20 μM
Protocol: Cells were seeded on 6- or 12-well plates, and the compounds to be tested were added at the desired concentration range. […] After 6 or 24 h incubation (3TC, 5% CO2), cells were harvested, washed and cell lysates were prepared using RIPA lysis buffer. The amount of protein was determined via BCA assay, and the appropriate quantity was then loaded on the precast gel for the protein separation. After primary and secondary Ab staining, the membranes were washed and signals developed. The densitometry analysis was implemented to obtain the numeric values used later in the protein level evaluation process. […] The treatment with all compounds was carried out for 24 h.

Sequence of CRBN-DDB1 protein complex (Q96SW2 whole entry): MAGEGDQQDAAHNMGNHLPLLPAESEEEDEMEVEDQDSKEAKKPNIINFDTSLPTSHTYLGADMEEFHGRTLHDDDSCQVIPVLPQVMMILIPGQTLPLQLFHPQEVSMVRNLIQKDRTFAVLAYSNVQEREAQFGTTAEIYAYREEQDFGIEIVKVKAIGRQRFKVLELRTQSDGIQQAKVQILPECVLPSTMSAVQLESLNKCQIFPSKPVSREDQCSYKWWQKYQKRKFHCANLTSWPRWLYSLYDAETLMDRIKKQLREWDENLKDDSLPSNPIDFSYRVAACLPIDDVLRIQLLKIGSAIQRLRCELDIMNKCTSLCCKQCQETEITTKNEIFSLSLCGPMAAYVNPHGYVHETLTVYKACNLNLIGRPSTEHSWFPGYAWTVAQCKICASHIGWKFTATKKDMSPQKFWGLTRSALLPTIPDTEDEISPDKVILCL
Sequence of CRBN-DDB1 protein complex (Q16531 whole entry partner): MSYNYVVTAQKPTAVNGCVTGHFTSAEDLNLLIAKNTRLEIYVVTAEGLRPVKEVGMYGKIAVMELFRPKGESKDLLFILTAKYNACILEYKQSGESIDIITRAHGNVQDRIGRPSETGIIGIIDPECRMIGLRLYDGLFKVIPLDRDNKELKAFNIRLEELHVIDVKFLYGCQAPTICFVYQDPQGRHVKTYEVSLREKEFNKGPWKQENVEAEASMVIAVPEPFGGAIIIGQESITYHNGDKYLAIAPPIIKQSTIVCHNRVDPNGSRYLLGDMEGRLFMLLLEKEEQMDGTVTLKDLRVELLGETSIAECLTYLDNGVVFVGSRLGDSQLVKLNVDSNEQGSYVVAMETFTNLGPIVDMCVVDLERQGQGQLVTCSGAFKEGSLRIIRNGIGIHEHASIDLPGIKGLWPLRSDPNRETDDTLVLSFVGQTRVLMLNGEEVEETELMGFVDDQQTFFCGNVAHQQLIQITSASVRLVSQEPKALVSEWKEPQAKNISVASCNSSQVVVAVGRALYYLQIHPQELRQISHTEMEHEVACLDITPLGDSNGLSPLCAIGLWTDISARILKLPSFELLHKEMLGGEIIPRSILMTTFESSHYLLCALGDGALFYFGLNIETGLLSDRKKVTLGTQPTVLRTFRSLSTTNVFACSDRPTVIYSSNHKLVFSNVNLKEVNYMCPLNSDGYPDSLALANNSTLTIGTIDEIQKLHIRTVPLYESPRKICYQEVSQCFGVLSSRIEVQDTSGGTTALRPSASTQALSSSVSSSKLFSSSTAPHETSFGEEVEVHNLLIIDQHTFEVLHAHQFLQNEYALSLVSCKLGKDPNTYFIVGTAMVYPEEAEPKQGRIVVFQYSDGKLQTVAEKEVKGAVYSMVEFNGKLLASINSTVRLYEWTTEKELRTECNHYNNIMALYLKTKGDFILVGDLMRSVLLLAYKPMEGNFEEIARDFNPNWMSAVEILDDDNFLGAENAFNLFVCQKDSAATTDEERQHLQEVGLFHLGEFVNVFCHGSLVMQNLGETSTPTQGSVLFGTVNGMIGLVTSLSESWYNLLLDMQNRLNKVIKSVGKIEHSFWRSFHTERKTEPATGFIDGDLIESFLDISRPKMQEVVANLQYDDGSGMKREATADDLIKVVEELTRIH

Row | Compound | Ki [1] | % of IKZF1 protein reduction, IKZF 1 (24 H, 20 μM) (IKZF1)
1 | CC(C)(C)OC(=O)NCc1ccc(C(=O)NC2CCC(=O)NC2=O)s1 (centres unmarked) [Compound 49, tert-butyl ((5-((2,6-dioxopiperidin-3-yl)carbamoyl)thiophen-2-yl)methyl)carbamate] | < 5 µM | –
2 | CC(=O)Nc1sc(C#N)cc1C(=O)NC1CCC(=O)NC1=O (centres unmarked) [Compound 9, 5-cyano-N-(2,6-dioxopiperidin-3-yl)-2-acetamidothiophene-3-carboxamide] | < 5 µM | ≤25% (≤25% for 0-25% of IKZF1 protein reduction)
3 | Cn1cc(C(=O)NC2CCC(=O)NC2=O)c2cccnc21 (centres unmarked) [Compound 98, N-(2,6-dioxopiperidin-3-yl)-1-methyl-1H-pyrrolo[2,3-b]pyridine-3-carboxamide] | 10 to 50 µM | –
4 | O=C1CCC(NC(=O)c2sc(Br)c3cccnc23)C(=O)N1 (centres unmarked) [Compound 96] | < 5 µM | –
5 | CCOc1sccc1C(=O)NC1CCC(=O)NC1=O (centres unmarked) [Compound 28, N-(2,6-dioxopiperidin-3-yl)-2-ethoxythiophene-3-carboxamide] | < 5 µM | –
6 | NCc1csc(C(=O)NC2CCC(=O)NC2=O)c1 (centres unmarked) [Compound 52, 4-(aminomethyl)-N-(2,6-dioxopiperidin-3-yl)thiophene-2-carboxamide] | 10 to 50 µM | –
7 | O=C1CCC(NC(=O)c2cc(O)cs2)C(=O)N1 (centres unmarked) [Compound 53, N-(2,6-dioxopiperidin-3-yl)-4-hydroxythiophene-2-carboxamide] | < 5 µM | –
8 | O=C1CCC(NC(=O)c2ccoc2C2CC2)C(=O)N1 (centres unmarked) [Compound 47, 2-cyclopropyl-N-(2,6-dioxopiperidin-3-yl)furan-3-carboxamide] | 10 to 50 µM | –
9 | COc1scc(C)c1C(=O)NC1CCC(=O)NC1=O (centres unmarked) [Compound 29, N-(2,6-dioxopiperidin-3-yl)-2-methoxy-4-methylthiophene-3-carboxamide] | 5 to 10 µM | –
10 | CC(C)(C)OC(=O)NCc1nc(C(=O)NC2CCC(=O)NC2=O)cs1 (centres unmarked) [Compound 77, tert-butyl ((4-((2,6-dioxopiperidin-3-yl)carbamoyl)thiazol-2-yl)methyl)carbamate] | 5 to 10 µM | –
11 | O=C1CCC(NC(=O)c2ncsc2C2CC2)C(=O)N1 (centres unmarked) [Compound 82, 5-Cyclopropyl-N-(2,6-dioxopiperidin-3-yl)thiazole-4-carboxamide] | 10 to 50 µM | –
12 | COc1sc(Br)cc1C(=O)NC1CCC(=O)NC1=O (centres unmarked) [Compound 34, 5-bromo-N-(2,6-dioxopiperidin-3-yl)-2methoxythiophene-3-carboxamide] | < 5 µM | –
13 | O=C1CCC(NC(=O)c2cnc(C(F)(F)F)s2)C(=O)N1 (centres unmarked) [Compound 72, N-(2,6-dioxopiperidin-3-yl)-2-(trifluoromethyl)thiazole-5-carboxamide] | – | ≤25% (≤25% for 0-25% of IKZF1 protein reduction)
14 | O=C1CCC(NC(=O)c2cc(Cl)sc2NC(=O)c2ccccc2)C(=O)N1 (centres unmarked) [Compound 45, 2-benzamido-5-chloro-N-(2,6-dioxopiperidin-3-yl)thiophene-3-carboxamide] | – | >25% (>25% for 26-74% of IKZF1 protein reduction)
15 | COc1sc(C(C)(C)C)cc1C(=O)NC1CCC(=O)NC1=O (centres unmarked) [Compound 35, 5-(tert-butyl)-N-(2,6-dioxopiperidin-3-yl)-2-methoxythiophene-3-carboxamide] | < 5 µM | –
16 | CCOc1oc(C)nc1C(=O)NC1CCC(=O)NC1=O (centres unmarked) [Compound 68, N-(2,6-dioxopiperidin-3-yl)-5-ethoxy-2-methyloxazole-4-carboxamide] | 10 to 50 µM | –
17 | COc1sc(-c2ccccc2)cc1C(=O)NC1CCC(=O)NC1=O (centres unmarked) [Compound 33, N-(2,6-dioxopiperidin-3-yl)-2-methoxy-5-phenylthiophene-3-carboxamide] | < 5 µM | –

Row | Compound | Ki [1] | % of IKZF1 protein reduction, IKZF 1 (24 H, 20 μM) (IKZF1)
18 | CC(=O)Nc1sc2c(c1C(=O)NC1CCC(=O)NC1=O)CCCC2 (centres unmarked) [Compound 105, N-(2,6-dioxopiperidin-3-yl)-2-acetamido-4,5,6,7-tetrahydro-1-benzothiophene-3-carboxamide] | – | ≤25% (≤25% for 0-25% of IKZF1 protein reduction)
19 | O=C1CCC(NC(=O)c2c[nH]c3nccc(Cl)c23)C(=O)N1 (centres unmarked) [Compound 97, 4-chloro-N-(2,6-dioxopiperidin-3-yl)-1H-pyrrolo[2,3-b]pyridine-3-carboxamide] | 5 to 10 µM | –
20 | CC(C)(C)OC(=O)NCc1csc(C(=O)NC2CCC(=O)NC2=O)c1 (centres unmarked) [Compound 51, tert-butyl ((5-((2,6-dioxopiperidin-3-yl)carbamoyl)thiophen-3-yl)methyl)carbamate] | < 5 µM | –
21 | NCc1ccc(C(=O)NC2CCC(=O)NC2=O)s1 (centres unmarked) [Compound 50, 5-(aminomethyl)-N-(2,6-dioxopiperidin-3-yl)thiophene-2-carboxamide] | 10 to 50 µM | –
22 | COc1sc(C)cc1C(=O)NC1CCC(=O)NC1=O (centres unmarked) [Compound 30, N-(2,6-dioxopiperidin-3-yl)-2-methoxy-5-methylthiophene-3-carboxamide] | < 5 µM | –
23 | COc1sc(C2CC2)cc1C(=O)NC1CCC(=O)NC1=O (centres unmarked) [Compound 32, 5-cyclopropyl-N-(2,6-dioxopiperidin-3-yl)-2-methoxythiophene-3-carboxamide] | < 5 µM | –
24 | O=C1CCC(NC(=O)c2c[nH]c3ncc(Cl)cc23)C(=O)N1 (centres unmarked) [Compound 99, 5-chloro-N-(2,6-dioxopiperidin-3-yl)-1H-pyrrolo[2,3-b]pyridine-3-carboxamide] | 5 to 10 µM | –
25 | Nc1ncc(C(=O)NC2CCC(=O)NC2=O)s1 (centres unmarked) [Compound 112, 2-amino-N-(2,6-dioxopiperidin-3-yl)thiazole-5-carboxamide] | 5 to 10 µM | –
26 | COc1scnc1C(=O)NC1CCC(=O)NC1=O (centres unmarked) [Compound 79, N-(2,6-dioxopiperidin-3-yl)-5-methoxythiazole-4-carboxamide] | 5 to 10 µM | –
27 | CC(=O)N(C)c1sccc1C(=O)NC1CCC(=O)NC1=O (centres unmarked) [Compound 2, N-(2,6-dioxopiperidin-3-yl)-2-(N-methylacetamido)thiophene-3-carboxamide] | – | ≤25% (≤25% for 0-25% of IKZF1 protein reduction)
28 | O=C1CCC(NC(=O)c2ccsc2-n2cccn2)C(=O)N1 (centres unmarked) [Compound 39, N-(2,6-dioxopiperidin-3-yl)-2-(1H-pyrazol-1-yl)thiophene-3-carboxamide] | 10 to 50 µM | –
29 | COc1sc(N)nc1C(=O)NC1CCC(=O)NC1=O (centres unmarked) [Compound 80, 2-amino-N-(2,6-dioxopiperidin-3-yl)-5-methoxythiazole-4-carboxamide] | < 5 µM | –
30 | O=C1CCC(NC(=O)c2ccsc2C2CC2)C(=O)N1 (centres unmarked) [Compound 66, 2-cyclopropyl-N-(2,6-dioxopiperidin-3-yl)thiophene-3-carboxamide] | 10 to 50 µM | –
31 | CNc1scnc1C(=O)NC1CCC(=O)NC1=O (centres unmarked) [Compound 78, N-(2,6-dioxopiperidin-3-yl)-5-(methylamino)thiazole-4-carboxamide] | 10 to 50 µM | –
32 | CC(C)(C)OC(=O)NCc1sccc1C(=O)NC1CCC(=O)NC1=O (centres unmarked) [Compound 63, tert-butyl ((3-((2,6-dioxopiperidin-3-yl)carbamoyl)thiophen-2-yl)methyl)carbamate] | 10 to 50 µM | –
33 | O=C1CCC(NC(=O)c2csc(=O)[nH]2)C(=O)N1 (centres unmarked) [Compound 15, N-(2,6-dioxopiperidin-3-yl)-2-oxo-2,3-dihydrothiazole-4-carboxamide] | 5 to 10 µM | –
34 | O=C1CCC(NC(=O)c2ccsc2-n2cccc2)C(=O)N1 (centres unmarked) [Compound 41, N-(2,6-dioxopiperidin-3-yl)-2-(1H-pyrrol-1-yl)thiophene-3-carboxamide] | – | ≤25% (≤25% for 0-25% of IKZF1 protein reduction)
